Measured values from patent US20190316085A1, “Methods Of T-Lymphocyte Expansion” (Cambridge Enterprise Limited, priority 2015, published 2019).

Experiments:
CD8^+ T-lymphocytes [1] = assay: Flow cytometry of CD44 and CD62L surface expression; assay type: cell-based, mouse; settings: 0.5 mM, with IL-2; antigen specific (OT-I) and polyclonal CD8+ T-lymphocytes
Source text: Data are representative of n=4 individual mice.
Data are representative of 3 mice per genotype.
Data are representative of 2 mice per genotype.
Data are representative of n=3 individual mice.
Cells were stained and acquired on a Fortessa (BD Biosciences). […] For staining of nuclear-located marker Eomes, the Transcription Factor Staining Buffer Set (eBioscience) was used, according to the manufacturer's instructions. For staining of intracellular cytokines, OT-I cells were re-stimulated with […] peptide for 4 h with GolgiStop solution (BD). For ^1H-NMR experiments, CD8^+ T-lymphocytes were sorted from total splenocytes by immunostaining with anti-mouse CD8-AF647 (Biolegend) on a MoFlo (Beckman Coulter). Cells were then activated and cultured as described above.

[2] = tested on: OT-I CD8^+CD45.1^+ T-lymphocytes; assay: In vivo memory recall experiment (adoptive transfer, vaccination); parameters: species or system mouse; settings: 0.5 mM, 7 days with IL-2 (FIGS. 13, 16, 17)
Description: FIGS. 13B and 13C show representative flow cytometry plots of (B) CD8^+CD45.1^+ (C) or Kb/SIINFEKL Pentamer^+CD45.1^+ T-lymphocytes, in the spleens of vaccinated litter mate CD45.2 mice, 37 days after adoptive transfer of SIINFEKL-activated OT-I CD8^+CD45.1^+ T-lymphocytes, expanded with 0.5 mM S-2HG-octyl ester, 0.5 mM R-2HG-octyl ester or vehicle in the presence of IL-2 for 7 days. FIGS. 13D-F show (13D) the number of recovered CD45.1^+CD8^+ T-lymphocytes per spleen and (13E) % CD45.1^+ cells of the total CD8^+ population in each spleen or (13F) number of recovered Kb/SIINFEKL Pentamer^+CD45.1^+ T-lymphocytes per spleen 7 days after vaccination (37 days after the CD8+ T-cells were transferred into the mice). n=6 mice per group and error bars denote the s.e.m.
Total splenocytes from OT-1 CD45.1^+ mice were activated with 1000 nM SIINFEKL peptide in the presence of IL-2 and vehicle, 0.5 mM S-2HG-octyl ester or 0.5 mM R-2HG-octyl ester for 7 days. 1 million CD45^+CD8^+ cells were then injected intravenously into C57/B6 wild type CD45.2^+ host mice. 30 days later, host mice were vaccinated i.p. with SIINFEKL-loaded dendritic cells. 7 days later, spleens were harvested from host mice and the presence of CD45.1^+CD8^+ and Kb/SIINFEKL Pentamer+cells was determined by flow cytometry. Absolute numbers of cells were determined with the use of counting beads (CountBright, Life Technologies). Dendritic cells were prepared from bone marrow extracted from wild type C57/B6 mice. Bone marrow derived cells were cultured in non-TC treated petri dishes in RPMI-1640 medium containing 2 mM glutamine, 10% FBS, 25 mM HEPES, pH 7.2, 1% penicillin-streptomycin, 55 μM […] supplemented 20 ng/ml mGM-CSF (R&D Systems). After 8 days of culture, dendritic cells were activated with 1 μg/ml LPS (Sigma) for 24 h. The maturation of dendritic cells was confirmed by flow cytometry using the following markers: MHC class II-APC, CD11b-AF488, CD11c-AF488 and CD86-PE/Cy7 (Biolegend). Mature dendritic cells were then loaded with 2 μM SIINFEKL peptide at 37° C. for 1 hour. After peptide loading, dendritic cells were detached with 3 mM EDTA in PBS for 5-10 min at 37° C. and washed with PBS. For vaccination, 1 million peptide-loaded dendritic cells were injected i.p. per mouse in 100 μl PBS.

CD8^+ T-lymphocytes [3] = assay: Flow cytometric characterisation of phenotypic markers; assay type: cell-based, mouse; settings: 7 days
Source text: Gated on live CD8^+ cells. Each dot represents an individual mouse.
Associated statistics are shown and each pair of dots represents an individual mouse. Gated on live, CD8^+GFP^+ cells.
Cells were stained and acquired on a Fortessa (BD Biosciences). The following fluorophores and fluorophore-conjugated antibodies were used: anti-CD62L (Biolegend, MEL-14), anti-CD44 (Biolegend, IM7), anti-CD8a (Biolegend, 53-6.7), anti-CD45.1 (Biolegend, A20), anti-CD45.2 (Biolegend, 104), anti-CD127 (Biolegend, A7R34), anti-KLRG1 (Biolegend, 2F1/KLRG1), anti-CD19 (Biolegend, 6D5), anti-Bcl-2 (Biolegend, BCL/10C4), Eomes (eBioscience, Danlimag), PD-1 (Biolegend, 29F.1A12), […], H-2Kb/SIINFEKL Pentamer-PE (Proimmune, F093-2A), CFSE (Life Technologies), LIVE/DEAD Violet (Life Technologies), PI-AnnexinV (Biolegend, 640928), anti-Bcl-xl-PE (Cell Signalling Technologies, 54H6). For staining of nuclear-located marker Eomes, the Transcription Factor Staining Buffer Set (eBioscience) was used, according to the manufacturer's instructions. For staining of intracellular cytokines, OT-I cells were re-stimulated with SIINFEKL peptide for 4 h with GolgiStop solution (BD). For ^1H-NMR experiments, CD8^+ T-lymphocytes were sorted from total splenocytes by immunostaining with anti-mouse CD8-AF647 (Biolegend) on a MoFlo (Beckman Coulter). Cells were then activated and cultured as described above. For staining of human T cells, CD8^+ T cells were incubated at 37 C for 30 minutes in the presence of anti-CCR7 antibody (eBioscience 12-1979-41), followed by staining with anti-CD45RO antibody (Biolegend, UCHL1).

OT-I CD8^+ T-lymphocytes [4] = assay: Homeostatic proliferation after co-transfer into sub-lethally irradiated hosts; assay type: in vivo, mouse
Description: CD45.1.1 or CD45.1.2 OT-I CD8^+ T-lymphocytes were activated with 1000 nM SIINFEKL peptide and cultured with or without 300 μM S-2HG-octyl ester for 9 days. Cells from each group were mixed 1:1 and labelled with CFSE prior to transfer into sub-lethally irradiated CD45.2.2 mice. 7 days later, mice were sacrificed and the presence of CD451.1 and CD45.1.2 CD8^+ T-lymphocytes was enumerated in spleen by flow cytometry. Representative flow cytometry plots are shown for each pool before and after adoptive transfer. Flow cytometry plots show viable CD8^+ cells.
Total splenocytes from OT-I CD45.1/CD45.1 and OT-I CD45.1/CD45.2 mice were activated with 1000 nM SIINFEKL peptide in the presence of IL-2 and vehicle or 300 μM S-2HG-octyl ester. After 48 h CD8^+ T-cells were purified by negative selection and cultured for a further 7 days in the presence of IL-2 and vehicle or 300 μM S-2HG-octyl ester. Vehicle and S-2HG-treated cells were then mixed 1:1 and labelled with CFSE, followed by intravenous injection into sub-lethally irradiated CD45.2/CD45.2 hosts. 7 days later, spleens were harvested and analysed by flow cytometry. Absolute numbers of cells were determined with the use of counting beads (CountBright, Life Technologies)

CD8^+ T-lymphocytes [5] = assay: qRT-PCR of differentiation, memory and pluripotency associated genes; assay type: cell-based, mouse; settings: 0.5 mM, 1 day or 7 days, with IL2
Description: FIGS. 8E, 8F and 8G show expression of II2(8E), Ifng (8F), and Eomes (8G) mRNA in CD8^+ T-lymphocytes activated for 48 h with αCD3+αCD28 antibodies and then expanded for a further 2 days in the presence of IL-2. Cells were then treated for either 24 h or 7 days with or without 0.5 mM S-2HG-octyl ester or R-2HG-octyl ester. n≥4 mice per group.
Activated CD8^+ T-lymphocytes were treated with 0.5 mM of either S-2HG-octyl ester or R-2HG-octyl ester for 1 day or 7 days in the presence of IL2. The induction seen with R-2HG-octyl ester is weaker than with S-2HG-octyl ester. Each dot represents an individual donor mouse, n=4 mice. error bars denote the s.d.
RNA was isolated using the RNeasy kit (Qiagen). 1 μg of RNA was used for cDNA synthesis with the First-Strand Synthesis kit (Invitrogen). All samples were run in technical triplicates using a StepOnePlus system (Applied Biosystems) with SYBR green.

OT-I CD8^+ T-lymphocytes [6] = assay: Recall experiments with co-transferred cells; assay type: in vivo, mouse; settings: cells pre-treated with 300 μM S-2HG-octyl ester; spleen, lymphnodes, liver, day 37 post transfer
Description: CD45.1.1 or CD45.1.2 OT-I CD8^+ T-lymphocytes were activated with 1000 nM SIINFEKL peptide and cultured with or without 300 μM S-2HG-octyl ester for 9 days. Cells from each group were mixed 1:1 prior to transfer into CD45.2.2 mice. 30 days later, these recipient mice were vaccinated with SIINFEKL-loaded dendritic cells to induce recall and the presence of CD451.1 and CD45.1.2 CD8^+ T-lymphocytes was enumerated in spleen, lymphnodes and liver by flow cytometry 7 days later.

EG7-OVA tumours = assay: Adoptive cellular immunotherapy experiments; assay type: in vivo, mouse; settings: i.v.
Description: Mice were lymphodepleted with sub-lethal irradiation before receivening intravenous injection of OT-I CD8^+ T-lymphocytes. Error bars denote s.e.m. *p<0.05, ns=non-significant.
Error bars denote s.e.m. *p<0.05, ns=non-significant.
For adoptive cell therapy experiments, OT-I CD8^+ T-lymphocytes were activated with 1000 nM SIINFEKL peptide in the presence of IL-2 and vehicle or 300 μM S-2HG-octyl ester. After 48 h CD8^+ T-cells were purified by negative selection and cultured for a further 7 days in the presence of IL-2 and vehicle or 300 μM S-2HG-octyl ester. OT-I cells were transferred intravenously into tumour-bearing C57BL/6J lymphodepleted or lymphoreplete mice with 9-12 day established EG7-OVA tumours.

OT-I CD8^+ T-lymphocytes [7] = assay: In vivo persistence experiments; parameters: species or system mouse
Description: Flow cytomotery plots are gated on live cells.
Total splenocytes from OT-I CD45.1^+ mice were activated with 1000 nM SIINFEKL peptide in the presence of IL-2 and vehicle or 300 μM S-2HG-octyl ester. After 48 h CD8^+ T-cells were purified by negative selection and cultured for 7 days in the presence of IL-2 and vehicle or 300 μM S-2HG-octyl ester. 1 million CD45.1^+CD8^+ cells were then injected intravenously into C57BL/6J wild type CD45.2.2 host mice. 30 days later, host mice were sacrificed to assess the persistence of transferred cells in the spleen. Absolute numbers of cells were determined with the use of counting beads (CountBright, Life Technologies).

[8] = 500 μM S-2HG-octyl ester, HIF-1α-independent

SMILES: CCCCCCCCOC(=O)C(=O)CCC(=O)O [α-ketoglutarate octyl ester, reference compound]
- formation of a CD62L^high CD44^high population (CD8^+ T-lymphocytes [1]): not observed
- formation of memory cells after in vitro treatment of CD8+ T-cells [2]: does not induce the formation
- formation of memory cells after in vitro treatment of CD8+ T-cells ([2]; listed as alpha ketoglutarate): does not provide good activity

SMILES: O=C(O)CC[C@H](O)C(=O)O [S-2HG, S-2-hydroxyglutarate]
- proportion of KLRG1^High cells (CD8^+ T-lymphocytes [3]; 300 μM S-2HG-octyl ester, 21% oxygen, empty or L2hgdh-FLAG vector): decreased
- PD-1 expression (CD8^+ T-lymphocytes [3]; 500 μM S-2HG-octyl ester): less
- 41BB expression (CD8^+ T-lymphocytes [3]; [8]): more
- CD44 expression (CD8^+ T-lymphocytes [3]; [8]): more
- CD127 expression (CD8^+ T-lymphocytes [3]; [8]): more
- Eomes expression (flow cytometry) (CD8^+ T-lymphocytes [3]; [8]): more
- homeostatic proliferation of transferred cells (OT-I CD8^+ T-lymphocytes [4]; cells pre-treated with 300 μM S-2HG-octyl ester 9 days, 7 days after transfer, spleen): greater homeostatic proliferation
- transferred cells dividing >5 times in vivo (OT-I CD8^+ T-lymphocytes [4]; cells pre-treated with 300 μM S-2HG-octyl ester, CFSE, day 7): more cells dividing >5 times
- expression of pluripotency associated genes (Oct3/4, Sox2, Nanog, Klf4) (CD8^+ T-lymphocytes [5]): induces the expression
- recall response to vaccination with SIINFEKL-loaded dendritic cells (OT-I CD8^+ T-lymphocytes [6]): superior recall response
- control of tumour growth in lymphodepleted tumour-bearing mice (EG7-OVA tumours; 0.7×10^6 OT-I cells cultured with S-2HG-octyl ester, 12 day tumours): more proficient at controlling tumour growth
- control of tumour growth in lymphoreplete tumour-bearing mice (EG7-OVA tumours; 1.0×10^6 OT-I cells cultured with S-2HG-octyl ester, 9 day tumours): more proficient at controlling tumour growth
- persistence of adoptively transferred cells (OT-I CD8^+ T-lymphocytes [7]; cells pre-treated with 300 μM S-2HG-octyl ester, spleen, 30 days after transfer): dramatically enhanced persistence
- Bcl-2 level of recovered cells relative to naïve cells (OT-I CD8^+ T-lymphocytes [7]; day 30 after transfer): elevated
- CD44 level of recovered cells relative to naïve cells (OT-I CD8^+ T-lymphocytes [7]; day 30 after transfer): elevated
- CD127 level of recovered cells relative to naïve cells (OT-I CD8^+ T-lymphocytes [7]; day 30 after transfer): elevated

SMILES: COC(=O)CCC(=O)OC [dimethylsuccinate]
- formation of a CD62L^high CD44^high population (CD8^+ T-lymphocytes [1]): induce the formation
- formation of memory cells after in vitro treatment of CD8+ T-cells [2]: induces the formation
